Patent US6194173A, “Binding proteins for phosphoinositides, GRP1 or general receptor 1 for phophoinositide” (priority 1999, dated 2001)
“Also recorded” adds a separate entry of the source.

Experiments:
[1] = target: T1, GRP (Mus musculus, UniProt O08967); assay: Effect of phosphoinositides on GRP-catalyzed ARF1 guanine nucleotide exchange; format: biochemical; conditions: for stimulation of ARF1 exchange activity in the presence of GRP: 25 μM lipid, 0.15 μM GRP
T1 construct: GST (N, cleaved yes); made in house; host or cells: GRP from pGEX-4T; ARF1 from baculovirus-infected Sf-9 cells
T1 sequence (O08967 1-399): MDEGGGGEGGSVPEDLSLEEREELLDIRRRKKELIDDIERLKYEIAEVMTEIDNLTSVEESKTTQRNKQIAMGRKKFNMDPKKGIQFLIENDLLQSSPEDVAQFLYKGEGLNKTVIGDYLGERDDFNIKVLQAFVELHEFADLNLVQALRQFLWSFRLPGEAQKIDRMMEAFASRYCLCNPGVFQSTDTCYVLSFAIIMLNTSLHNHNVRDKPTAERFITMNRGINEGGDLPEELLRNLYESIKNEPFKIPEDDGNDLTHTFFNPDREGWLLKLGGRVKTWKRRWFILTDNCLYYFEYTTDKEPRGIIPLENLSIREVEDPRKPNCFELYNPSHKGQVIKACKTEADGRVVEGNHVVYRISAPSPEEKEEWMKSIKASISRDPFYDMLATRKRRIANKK

[2] = target: T2, PH domain of GRP (Mus musculus, UniProt O08967); assay: Binding specificity of the GRP PH domain for 32P-labeled phosphoinositides (GST-PH on nitrocellulose); design: species or system murine; conditions: GST-PH, 25,000 cpm lipid; relative to GST
T2 sequence (O08967 239-399): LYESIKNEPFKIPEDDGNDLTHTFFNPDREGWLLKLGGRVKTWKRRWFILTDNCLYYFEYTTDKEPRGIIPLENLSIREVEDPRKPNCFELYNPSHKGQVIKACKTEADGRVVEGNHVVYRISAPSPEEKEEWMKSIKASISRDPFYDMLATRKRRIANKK
Procedure: The 3'-phosphatidylinositol probes labeled at the 3' position were generated using GST-p110 PI3-kinase purified from recombinant bacculovirus infected Sf 9 cells, using either purified phosphatidylinositol phosphates or crude brain lipid. Briefly, 20 mg phospholipid in chloroform was dried under N2 and resuspended in […] of buffer containing Tris-HCl pH 7.4, EDTA 1 mM and incubated in […] phopsphorylation media containing 20 mM Tris-HCl pH 7.4, 100 mM NaCl, 10 mM MgCl2, 0.5 mM EGTA. 0.2 mM adenosine, GST-p110 and 5-10 mCi [g-^32 P]ATP (5 Ci/umol). The reaction was carried out for 2 h at room temperature, quenched by addition of 0.2 ml of 1M HCl, followed by 0.5 ml of chloroform:methanol (1:1). The organic phase containing phospholipids was washed 4 times with 0.4 ml of methanol:HCl (1: 1) and stored at -70° C. until use. Just before use, the lipid was dried under a stream of nitrogen with phosphatidyl serine corresponding to a final concentration of 20 mg/ml. The identities of the PI3-P, PI3,4-P2 and PI3,4,5-P3 were confirmed by TLC and HPLC analysis.
To generate the GST fusion proteins, PCR reactions using the primers: […] (SEQ ID NO:9) and […] (SEQ ID NO:10) for the GST-N construct, […] (SEQ ID NO:11) and […] (SEQ ID NO:12) for the GST-Sec7 construct, […] (SEQ ID NO:13) and […] (SEQ ID NO:14) for the GSTPH construct, and […] […] The filters were washed four times with 1 mL assay buffer and counted in a scintillation counter.
In order to determine whether PI(3,4,5)P3 binding could be localized to specific sequences within the GRP structure, GST fusion proteins containing either residues 239 to 399 (PH domain), residues 52 to 260 (Sec7 domain), or residues 5 to 71, full length GRP residues 5-399 were expressed in bacteria and purified on glutathione-conjugated beads. […] 150 pmol of the proteins were spotted on nitrocellulose filters, incubated with [^32 P]PI(3,4,5)P3 and the amount of bound lipid was determined as described. […] Nitrocellulose filters with GST-PH were incubated with 25,000 cpm of each of the phospholipids and the amount of bound lipid determined as described above. […]

[3] = target: T3, proteins encoded by both brain and adipocyte cDNA clones (GRP) (Mus musculus, UniProt O08967); assay: Binding of 32P-labeled phosphoinositides to protein of isolated cDNA clones on nitrocellulose filters (library screen); conditions: library screening conditions
T3 construct: lack four residues
T3 sequence (O08967 5-399): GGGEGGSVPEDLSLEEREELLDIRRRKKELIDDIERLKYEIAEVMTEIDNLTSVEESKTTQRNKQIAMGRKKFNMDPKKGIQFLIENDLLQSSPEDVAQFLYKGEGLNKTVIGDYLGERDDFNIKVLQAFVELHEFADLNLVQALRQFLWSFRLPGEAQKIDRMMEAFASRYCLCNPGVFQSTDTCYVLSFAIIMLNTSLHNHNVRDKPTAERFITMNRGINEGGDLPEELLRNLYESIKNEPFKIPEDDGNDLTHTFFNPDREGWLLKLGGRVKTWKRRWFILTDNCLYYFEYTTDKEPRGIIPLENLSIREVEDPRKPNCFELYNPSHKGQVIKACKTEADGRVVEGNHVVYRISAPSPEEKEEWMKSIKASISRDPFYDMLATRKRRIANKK

Phosphatidylinositol (3,4,5)-Trisphosphate [PtdIns(3,4,5)P3]
maximal activation of GRP-catalyzed ARF1 exchange ([1]; 0.1 μM GRP1, 40 minutes): 3-4 fold
EC50 ([1]; 0.1 μM GRP1, 40 minutes, read-out: half maximal stimulation of GRP-catalyzed ARF1 [^35 S]GTPγS binding): ~1000 nM
stimulation of ARF1 exchange activity in the presence of GRP ([1]; 0.05% cholate and 0.05% CHAPS (low negative charge)): selectively stimulated; also recorded: Selectivity
stimulation of ARF1 exchange activity in the presence of GRP ([1]; 0.1% cholate (high negative charge)): stimulated
binding of labeled phosphoinositide to the GRP PH domain [2]: specifically
binding of labeled phosphoinositide to the cDNA clone protein [3]: bound
